Experimental data as given in publication PMC10314921, “Eltrombopag directly activates BAK and induces apoptosis” (Cell Death & Disease, 2023).

Target: T1, BAK (Homo sapiens, UniProt Q16611)
T1 construct: gene BAK1; BAKΔTM (lacking its transmembrane domain) for MST; BAK 15–186 for NMR
T1 sequence (Q16611 15-186): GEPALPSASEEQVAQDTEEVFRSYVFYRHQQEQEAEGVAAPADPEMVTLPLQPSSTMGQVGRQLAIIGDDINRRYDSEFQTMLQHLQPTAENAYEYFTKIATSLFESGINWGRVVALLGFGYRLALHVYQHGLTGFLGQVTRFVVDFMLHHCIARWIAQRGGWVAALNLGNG
Assay: microscale thermophoresis; 1H, […]-HSQC NMR titration; BAK oligomerization and liposome release as support
Assay type: binding

- Kd: 1.2 ± 0.7 µM
Structure (SMILES): CC1=NN(c2ccc(C)c(C)c2)C(=O)/C1=N\Nc1cccc(-c2cccc(C(=O)O)c2)c1O [Eltrombopag]
